From US10982219B2, “Guayule with increased rubber production and yield” (The United States of America, as represented by the …, priority 2017, dated 2021)

How the values were obtained:
Assay type in all cases: in vivo, Parthenium argentatum
guayule G7-11 plants [1] = assay: Exogenous SA in tissue culture growth medium, rubber content by ASE; settings: 8 weeks, versus 0 nM
Procedure: (§1) The effect of SA on guayule PaAos gene expression is tested in wild-type guayule G7-11 plants. SA is added to the growth medium (K0) in tissue culture at different concentrations, 0 nM, 10 nM and 100 nM. Shoot tips are transferred to the growth media, and plants are grown for 8 weeks. The rubber content of the plant tissues is determined by standard procedures (ASE, see Example 3 supra). […] The effect of exogenous 10 nM SA on one month old guayule plants grown in the soil under greenhouse conditions is also examined.

guayule G7-11 plants [2] = assay: Exogenous SA applied to soil of greenhouse guayule, growth and rubber content; settings: 50 ml of 10 nM SA to soil twice weekly for two months
Procedure: as §1

PaAos = assay: qRT-PCR of PaAOS in SA treated soil-grown guayule; settings: 10 nM SA to soil twice weekly for two months
Procedure: as §1

Compound: O=C(O)c1ccccc1O [SA, salicylic acid]
- amount of rubber produced (guayule G7-11 plants [1]; 10 nM SA in growth medium): increases the amount of rubber produced in a significant manner
- amount of rubber produced (guayule G7-11 plants [1]; 100 nM SA in growth medium): increases the amount of rubber produced in a significant manner
- height and primary stem diameter (guayule G7-11 plants [2]; versus mock or water treated): significant differences in the height and primary stem diameter
- rubber content (guayule G7-11 plants [2]; versus mock treated): slightly increases and significantly differs
- PaAOS expression (qRT-PCR) (PaAos): low expression pattern
